Assay results taken from patent US20250127759A1, “METHODS AND DOSING REGIMENS COMPRISING A CDK2 INHIBITOR FOR THE TREATMENT OF CANCER” (PFIZER INC., priority 2021, published 2025).
Read-outs that look alike come from different tables or passages of the source.

What was measured:
[1] = Phase 1/2a study, plasma pharmacokinetics of PF-07104091; format: in vivo, human; details: human, plasma, po; for half-life: read-out: t1/2 (converted); for Cmax: read-out: Cmax
From the text: Blood samples will be collected for measurement of plasma concentrations of PF-07104091 as specified in the protocol. Samples will be used to evaluate the PK of PF-07104091. Samples collected for analyses of PF-07104091 plasma concentration may also be used to evaluate safety or efficacy aspects related to concerns arising during or after the study, for metabolite identification and/or evaluation of the bioanalytical method, or for other internal exploratory purposes.
Plasma PF-07104091 concentrations will be summarized descriptively (n, mean, standard deviation, coefficient of variation, median, minimum, maximum, geometric mean and its associated coefficient of variation) by dose, cycle, day and nominal time. Individual participant plasma PF-07104091 concentration-time data within a dose interval (with exception of the food effect substudy) after Cycle 1 Day 1 and Cycle 1 Day 15 will be analyzed using noncompartmental methods to determine single and multiple dose PK parameters. For participants in the food effect substudy, individual plasma PF-07104091 concentration-time data after Cycle 1 Day 15 and Cycle 1 Day 16 will be analyzed using noncompartmental methods to determine multiple dose PK parameters. For Part 1 of the study, single dose PK parameters to be estimated will include the Cmax, Tmax, and AUClast, and if data permit, t1/2, CL/F, and Vz/F. Multiple dose PK parameters to be estimated will include Cmax,ss, Tmax,ss, AUCT,ss, Cmin,ss, CL/F,ss, and if data permit, V/Fss, t1/2, and Rac. For Part 2 of the study (with exception of the food effect substudy), single dose PK parameters to be estimated will include Cmax, Tmax and AUClast. Multiple dose PK parameters to be estimated will include Cmax,ss, Tmax,ss, AUClast, Cmin,ss, and Rac. The single dose and steady state PK parameters will be summarized descriptively (n, mean, standard deviation, coefficient of variation, median, minimum, maximum, geometric mean and its associated coefficient of variation) by dose level, cycle and day. For participants in the food effect substudy, multiple dose PK parameters to be estimated will include Cmax,ss, AUCT,ss, Tmax,ss, Cmin,ss, CL/Fss, and if data permit, V/Fss and t1/2.
An ongoing Phase 1/2a, open-label, multicenter, multiple dose study is being conducted to determine the safety, tolerability, PK, PD, and preliminary anti-tumor activity of PF-07104091 as a single agent and in combination with endocrine therapy. PF-07104091 is administered orally twice daily (BID) during 28-day cycles.
Preliminary concentration-time data of PF-07104091 following single and multiple oral administration at 75 mg BID to 500 mg BID as monotherapy or in combination with endocrine therapy alone or in combination with palbociclib and endocrine therapy were available from 44 participants with advanced solid tumors and HR-positive HER2-negative advanced or metastatic breast cancer. The preliminary concentration-time data were analyzed by noncompartmental approach using actual PK sampling times.
[…] Individual values are listed when the number of participants with available parameters is less than 3.

[2] = Predicted human pharmacokinetics for starting dose
Procedure: The selection of the starting dose and regimen was based on the nonclinical toxicology and PK results in accordance with the ICH S9 Guidance. Results from nonclinical toxicity studies indicate the STD10 of PF-07104091 in mouse was 150 mg/kg after BID oral administration. The human equivalent dose for the STD10 in mouse is approximately 729 mg BID (assuming a body weight of 60 kg). Per ICH-S9 guidance, one-tenth of the STD10 can be considered the appropriate starting dose. Given the predicted human t % of approximately 4 hours, the starting dose has been selected to be 75 mg BID. The human AUC0-12 hr of PF-07104091 at the proposed starting oral dose of 75 mg BID is predicted to be ˜6.5% of the observed AUC0-12 hr at the STD10 in mouse (150 mg/kg BID) and ˜80% of the observed AUC0-12 hr at the HNSTD in dog (15 mg/kg BID).

[3] = 150 mg, Cycle 1 Day 15, repeated BID oral, 150 mg BID monotherapy, geometric mean (CV %)
[4] = 225 mg, Cycle 1 Day 1, single oral dose, 225 mg BID monotherapy, geometric mean (CV %)
[5] = 225 mg, Cycle 1 Day 15, repeated BID oral, 225 mg BID monotherapy, geometric mean (CV %)
[6] = 300 mg, Cycle 1 Day 1, single oral dose, 300 mg BID monotherapy, geometric mean (CV %)
[7] = 300 mg, Cycle 1 Day 15, repeated BID oral, 300 mg BID monotherapy, geometric mean (CV %)
[8] = 375 mg, Cycle 1 Day 1, single oral dose, 375 mg BID monotherapy, individual values
[9] = 500 mg, Cycle 1 Day 1, single oral dose, 500 mg BID monotherapy, geometric mean (CV %)
[10] = 500 mg, Cycle 1 Day 15, repeated BID oral, 500 mg BID monotherapy, individual value, N = 1

## COCc1cc(C(=O)Nc2cc([C@H]3CC[C@@H](OC(=O)NC(C)C)C3)[nH]n2)n(C)n1 [PF-07104091, (1R,3S)-3-[3-({[3-(methoxymethyl)-1-methyl-1H-pyrazol-5-yl]carbonyl}amino)-1H-pyrazol-5-yl]cyclopentyl propan-2-ylcarbamate]
[1]; 150 mg, Cycle 1 Day 1, single oral dose, 150 mg BID monotherapy, median (range), read-out: Tmax
  Tmax: 2 h
[1]; 150 mg, Cycle 1 Day 1, single oral dose, 150 mg BID monotherapy, n = 1
  half-life: 2.8 h
[1]; [3]
  AUC(0-t): 8020 ng·h/mL
  Cmax: 1320 ng/mL
[1]; 150 mg, Cycle 1 Day 15, repeated BID oral, 150 mg BID monotherapy, median (range), read-out: Tmax
  Tmax: 2.2 h
[1]; 150 mg, Cycle 1 Day 15, repeated BID oral, 150 mg BID monotherapy, n = 1
  half-life: 1.9 h
[1]; 225 mg, Cycle 1 Day 1, single oral dose, 225 mg BID monotherapy, arithmetic mean ± SD
  half-life: 2.2 ± 0.7 h
[1]; [4]
  AUC(0-t): 6630 ng·h/mL
  Cmax: 1390 ng/mL
[1]; 225 mg, Cycle 1 Day 1, single oral dose, 225 mg BID monotherapy, median (range), read-out: Tmax
  Tmax: 3.9 h
[1]; 225 mg, Cycle 1 Day 15, repeated BID oral, 225 mg BID monotherapy, arithmetic mean ± SD
  half-life: 2.6 ± 0.9 h
[1]; [5]
  AUC(0-t): 10700 ng·h/mL
  Cmax: 2350 ng/mL
[1]; 225 mg, Cycle 1 Day 15, repeated BID oral, 225 mg BID monotherapy, median (range), read-out: Tmax
  Tmax: 2 h
[1]; 300 mg, Cycle 1 Day 1, single oral dose, 300 mg BID monotherapy, arithmetic mean ± SD
  half-life: 2 ± 0.6 h
[1]; [6]
  AUC(0-t): 9110 ng·h/mL
  Cmax: 1820 ng/mL
[1]; 300 mg, Cycle 1 Day 1, single oral dose, 300 mg BID monotherapy, median (range), read-out: Tmax
  Tmax: 2 h
[1]; 300 mg, Cycle 1 Day 15, repeated BID oral, 300 mg BID monotherapy, arithmetic mean ± SD
  half-life: 2.8 ± 0.2 h
[1]; [7]
  AUC(0-t): 12500 ng·h/mL
  Cmax: 2570 ng/mL
[1]; 300 mg, Cycle 1 Day 15, repeated BID oral, 300 mg BID monotherapy, median (range), read-out: Tmax
  Tmax: 2.1 h
[1]; [8]
  AUC(0-t): 11600 ng·h/mL
  Cmax: 2520 ng/mL
[1]; 375 mg, Cycle 1 Day 1, single oral dose, 375 mg BID monotherapy, individual values, read-out: Tmax
  Tmax: 4 h
[1]; 375 mg, Cycle 1 Day 1, single oral dose, 375 mg BID monotherapy, n = 1
  half-life: 1.5 h
[1]; [9]
  AUC(0-t): 15200 ng·h/mL
  Cmax: 2980 ng/mL
[1]; 500 mg, Cycle 1 Day 1, single oral dose, 500 mg BID monotherapy, median (range), read-out: Tmax
  Tmax: 5.3 h
[1]; [10]
  AUC(0-t): 21500 ng·h/mL
  Cmax: 4420 ng/mL
[1]; 500 mg, Cycle 1 Day 15, repeated BID oral, 500 mg BID monotherapy, individual value, N = 1, read-out: Tmax
  Tmax: 4 h
[1]; oral administration at doses up to 300 mg BID, read-out: median Tmax
  Tmax: 0.5 to 4 h
[2]; human 75 mg BID oral vs dog 15 mg/kg BID
  predicted human AUC0-12 hr as % of observed AUC0-12 hr at the HNSTD in dog: ~80%
[2]; human 75 mg BID oral vs mouse 150 mg/kg BID
  predicted human AUC0-12 hr as % of observed AUC0-12 hr at the STD10 in mouse: ~6.5%
[2]; human, predicted
  predicted human t %: approximately 4 hours
